How the values were obtained:
[1] = test system: stimulus-induced acetylcholine release, slices from the parietal cortex; assay: Neurotransmitter (ACh) release assay, rat cortex slices, K+ stimulated; type: cell-based, rat (male Wistar); details: for activation at 10 µM: Table II, % increase of drug-induced ACh release; for EC50: Table III
Experimental: The neurotransmitter release activities of the compounds of this invention were determined using standard biochemical assay procedures for example, the neurotransmitter release assay as described below.
Neurotransmitter release assay.
The neurotransmitter (Ach) release activities of the compounds of this invention were determined by the assay as described by Nickolson, et al., Drug Development Research, (1990) 19: 285-300, a modification of the procedure described by Mulder, et al., Brain Res., (1974) 70: 372.
Male Wistar rats (Charies River) weighing 175-200 grams were used. Rats were decapitated and brains were dissected immediately. Slices (0.3 mm thick) from the parietal cortex were prepared (approximately 100 mg wet weight) and were incubated in 10 ml KrebsRinger medium (KR) containing NaCl (116 mM), KCl (3 mM), CaCl2 (1.3 mM), MgCl2 (1.2 mM), KH2 PO4 (1.2 mM), Na2 SO4 (1.2 mM), NaHCO3 (25.0 mM), and glucose (11.0 mM), to which was added 10 uCi ^3 H-choline (specific activity approximately 35 Ci/mM; NEN) and […] unlabeled choline to give a final concentration of one micromole. The brain preparations were incubated for 30 min. at 37° C. under a steady flow of 95% O2 /5% CO2. Under these conditions, part of the radioactive choline taken up by the preparation was converted into radioactive acetylcholine (ACh) by the cholinergic nerve endings stored in synaptic vesicles, and released upon depolarization by high potassium ion (K+) containing media.
After labelling of the ACh stores, the slices were washed three times with non-radioactive KR medium and transferred to a superfusion apparatus to measure the drug effects on ACh release. The superfusion apparatus consisted of 10 thermostated glass columns of 5 mm diameter that were provided with GF/F glass fiber filters to support the slices (approximately 10 mg tissue/column). Superfusion was carried out in KR-medium (0.3 ml/min.) containing […] hemicholine-3 (HC-3). The HC-3 prevents the reuptake of choline formed during the superfusion from phospholipids and released ACh, which would be converted into unlabeled ACh and released in preference to the preformed labeled ACh. The medium was delivered by a 25-channel peristaltic pump (Ismatec by Brinkman) and warmed to 37° C. in a thermostated stainless steel coil before entering the superfusion column. Each column was provided with a 4-way slider valve (Beckmann instruments) which allowed rapid change of low to high K+/KR-medium, and with two 10-channel 3-way valves that were used to change from drug-free to drug-containing low and high K+/KR-medium. After 15 min. of washout of non-specifically bound radioactivity, collection of 4 min. fractions was initiated. After three 4 min. collections, the original medium was changed to a KR-medium in which the KCl concentration had been increased to 25 mM (high K+ medium) (S1). Depolarization-induced stimulation of release by high K+/KR-medium lasted for 4 min. Drug free low and high K+/KR-media were then substituted by drug- and vehicle-containing low- and high-K+/KR-medium, and superfusion was continued for three 4 min. collections with low K+/KR-medium, one 4 min. collection with high K+/KR-medium (s2), and two 4 min. collections with low K+/KR-medium.
Drug was added to the media by 100-fold dilutions of appropriate concentrations of the drug (in 0.9% saline) with either low- or high-K+/KR-medium. For comparative purposes, linopirdine was also run.
All superfusion fractions were collected in liquid scintillation counting vials. After superfusion, the slices were removed from the superfusion columns and extracted with 1.0 ml of 0.1N HCl. Liquiscint (NEN) counting fluid (12 ml) was added to superfusion fractions and extracts, and the samples were counted in a Packard Tricarb Liquid Scintillation Counter. No corrections were made for quenching. […]

[2] = test system: memory disruption induced by hypoxia, male CD rats; assay: Rat Passive Avoidance (PA) Hypoxia Induced Amnesia; type: in vivo, rat (male CD); details: Table II; SC; median retention latency vs vehicle
Text: Rat Passive Avoidance (PA) Hypoxia Induced Amnesia:
Unfasted male CD rats, weighing between 165-210 grams, were trained in a PA apparatus using the following procedure: rats were placed in the clear side of the two compartment chamber and allowed 90 seconds to enter the dark compartment. Ten seconds after entering the dark chamber, a 3 second footshock (1.0 mA) was applied to the grid floor followed by an additional 10 second delay, and another 3 second footshock was applied. Retentions were tested 4 hours later. The rats were allowed 300 seconds to enter the dark compartment; time was taken. Memory disruption was induced by exposing the rats to a gas mixture containing 6.5% oxygen supplemented with nitrogen for 30 minutes before passive avoidance training. Doses of the test compound were administered (0.1 ml/100 g, SC.) relative to time of PA training.

[3] = test system: ACh level in the rat hippocampus; assay: Microdialysis, ACh levels in the rat hippocampus in vivo; design: species or system rat (male Wistar); details: Table IV
Experimental: Male Wistar Rats are anaesthetized and guide cannulas stereotaxically implanted into the brain at the level of the dorsal hippocampus. Following a minimum recovery period of 72 h, dialysis probes (0.5 mm diameter, 4.0 mm long, from BAS) are inserted into the hippocampus through the guide cannulas. The probes are perfused at a rate of 2 μl/min with artificial cerebrospinal fluid containing 100 μM physostigmine sulfate (a cholinesterase inhibitor). Rats are allowed to acclimate for 2 hours prior to sample collection. Dialysate samples are collected every 20 min (40 μl) and immediately injected onto a high performance liquid chromatograph equipped for electrochemical detection (HPLC-EC) of acetylcholine (ACh). Following collection of 3 baseline samples, drugs or vehicle control are administered in 0.01 ml/g body weight and dialysate samples are collected for an additional 3 h. The ACh peak heights of the 3 samples prior to drug administration are averaged together to determine baseline ACh levels. ACh peak heights post drug administration are measured and used to determine percent change over baseline ACh levels. At the end of experiments, probe placement is verified histologically.
ACh is separated by reverse phase chromatography (Hamilton PRP-1 column 150×4.5 mm) and converted to acetate, betaine and hydrogen peroxide on an immobilized enzyme reactor column (BAS). Hydrogen peroxide is then detected electrochemically. Mobile phase for the chromatography consists of 0.2M Na2 HPO4, 0.1 mM EDTA, 0.5 mM SOS, 0.9 mM TMA.Cl, with pH adjusted to 8.0 with phosphoric acid and […] Kathon CG (ESA) added to each liter of mobile phase to retard bacterial growth.
FIGS. 1 and 2 show the effects of fluorine substitution to the pendant groups of the anthrone and azafluorene core series on the ability of compounds to increase the level of ACh in the rat hippocampus in vivo. All compounds were tested at 5 mg/kg except Ex. No 64 which was administered at 1 mg/kg. […] This was observed even though the compound was administered by a route (i.p.) which should lead to greater bioavailability than the oral route. Example 68 of the present invention, the bis-fluorinated analog of Example 611 or U.S. Pat. No. 5,173,489, on the other hand, led to a 2-fold increase in ACh levels which was maintained for over 1 hour (FIG. 1). The anthrone compound Ex. No. 440 of U.S. Pat. No. 5,173,489, at 5 mg/kg, led to a peak ACh level of 72% over baseline (FIG. 2). Ex. No. 64 of the present invention, which is the bis-fluoro analog of Ex. No. 440 of U.S. Pat. No. 5,173,489, at 1 mg/kg, led to a delayed increase in ACh levels reaching a peak of over 100% above baseline (FIG. 2). In contrast to the observed effects of Example 440 of U.S. Pat. No. 5,173,489, the increase in ACh level after administration of Example 64 of the present invention was maintained for the entire duration of testing (3 hours).

[4] = 5 mg/kg, vehicle methocel, NSP = no significant points

Compound	activation at 10 µM [1] [%]	PA Hypoxia [2]	AUC, Area % under the curve ([3]; 5 mg/kg, vehicle methocel) [%]	Peak, maximal % increase of ACh release over baseline ([3]; 5 mg/kg, vehicle methocel) [%]	time of Peak after administration ([3]; 5 mg/kg, vehicle methocel) [min]	Duration, minutes of release above statistical significance [3, 4]	EC50 [1] [nM]	AUC, Area % under the curve ([3]; 10 mg/kg, vehicle methocel) [%]	Duration, minutes of release above statistical significance ([3]; 10 mg/kg, vehicle methocel) [min]	Peak, maximal % increase of ACh release over baseline ([3]; 10 mg/kg, vehicle methocel) [%]	time of Peak after administration ([3]; 10 mg/kg, vehicle methocel) [min]	further results
c1ccc(Cn2ncc3c2-c2ccccc2C3(Cc2ccncc2)Cc2ccncc2)cc1 [Example 14, 1,4-Dihydro-1-(phenylmethyl)-4,4-bis(4-pyridinylmethyl)indeno[1,2-C]pyrazol]	533	Active										
Fc1cc(CC2(Cc3ccnc(F)c3)c3cccnc3-c3cccnc32)ccn1 [Example 75, 9,9-Bis((2-fluoro-4-pyridinyl)methyl)-cyclopenta[1,2-b:3,4-b']dipyridine]			302 ± 35	67 ± 12	20	60 min	1210					
Fc1cc(CC2(Cc3ccnc(F)c3)c3ccccc3-c3nc(-c4ccccc4)ncc32)ccn1 [Example 76, 5,5-Bis((2-fluoro-4-pyridinyl)methyl)-2-phenyl-5H-indeno[1,2-d]pyrimidine]			96 ± 67	39 ± 25	20	NSP	660					
Fc1cc(CC2(Cc3ccnc(F)c3)c3ccccc3-c3ncncc32)ccn1 [Example 81, 5,5-Bis((2-fluoro-4-pyridinyl)methyl)-5H-indeno-[1,2-d]pyrimidine]			250 ± 68	53 ± 17	60	100 min	640					
Fc1cc(CC2(Cc3ccnc(F)c3)c3cccnc3-c3ncccc32)ccn1 [Example 97, 5,5-Bis((2-fluoro-4-pyridinyl)methyl)-5H-cyclopenta[2,1-b:3,4-b']dipyridine]							2620	649 ± 188	120	102 ± 29	100	
O=C1N(c2ccccc2)c2ccccc2C1(Cc1ccncc1)Cc1ccncc1 [linopirdine, 3,3-bis-(4-pyridinylmethyl)-1-phenylindolin-2-one, reference compound]	408	Active						212 ± 61	100	62 ± 15	40	AUC, Area % under the curve ([3]; 5 mg/kg, vehicle water): 83 ± 73%; Peak, maximal % increase of ACh release over baseline ([3]; 5 mg/kg, vehicle water): 50 ± 16%; time of Peak after administration ([3]; 5 mg/kg, vehicle water): 40 min; Duration, minutes of release above statistical significance ([3]; 5 mg/kg, vehicle water, NSP = no significant points): 20 min; AUC, Area % under the curve ([3]; 10 mg/kg, vehicle water): 191 ± 68%; Duration, minutes of release above statistical significance ([3]; 10 mg/kg, vehicle water): 60 min; Peak, maximal % increase of ACh release over baseline ([3]; 10 mg/kg, vehicle water): 56 ± 7%; time of Peak after administration ([3]; 10 mg/kg, vehicle water): 40 min; AUC, Area % under the curve ([3]; 20 mg/kg, vehicle methocel): 600 ± 71%; Duration, minutes of release above statistical significance ([3]; 20 mg/kg, vehicle methocel): 140 min; Peak, maximal % increase of ACh release over baseline ([3]; 20 mg/kg, vehicle methocel): 117 ± 36%; time of Peak after administration ([3]; 20 mg/kg, vehicle methocel): 40 min; AUC, Area % under the curve ([3]; 20 mg/kg, vehicle water): 315 ± 108%; Duration, minutes of release above statistical significance ([3]; 20 mg/kg, vehicle water): 100 min; Peak, maximal % increase of ACh release over baseline ([3]; 20 mg/kg, vehicle water): 68 ± 26%; time of Peak after administration ([3]; 20 mg/kg, vehicle water): 100 min

Source: patent US5594001A, “Polycyclic systems, and derivatives thereof, as neurotransmitter release enhancers useful in the treatment of cognitive disorders” (The DuPont Merck Pharmaceutical Company, priority 1994, dated 1997)
